The values that follow are results of earlier work, collected in patent US20250066562A1, “METHOD AND MATERIAL FOR DIFFERENTIATED SEQUESTRATION OF SUBSTANCES OF DIFFERENT SUBSTANCE GROUPS WITH THE AID OF HYDROGELS CONTAINING SULPHATED OR SULPHONATED COMPONENTS” (LEIBNIZ-INSTITUT FÜR POLYMERFORSCHUNG E.V., priority 2017, published 2025).

The target in one data set is thrombin (Homo sapiens, UniProt P00734). The following applies: according to Freudenberg et al., J. Controlled Release 220 (2015) 79-88.
A further data set deals with antithrombin (Homo sapiens, UniProt P01008). The conditions noted are these: according to Freudenberg et al., J. Controlled Release 220 (2015) 79-88.
Chain of antithrombin (P01008 33-464): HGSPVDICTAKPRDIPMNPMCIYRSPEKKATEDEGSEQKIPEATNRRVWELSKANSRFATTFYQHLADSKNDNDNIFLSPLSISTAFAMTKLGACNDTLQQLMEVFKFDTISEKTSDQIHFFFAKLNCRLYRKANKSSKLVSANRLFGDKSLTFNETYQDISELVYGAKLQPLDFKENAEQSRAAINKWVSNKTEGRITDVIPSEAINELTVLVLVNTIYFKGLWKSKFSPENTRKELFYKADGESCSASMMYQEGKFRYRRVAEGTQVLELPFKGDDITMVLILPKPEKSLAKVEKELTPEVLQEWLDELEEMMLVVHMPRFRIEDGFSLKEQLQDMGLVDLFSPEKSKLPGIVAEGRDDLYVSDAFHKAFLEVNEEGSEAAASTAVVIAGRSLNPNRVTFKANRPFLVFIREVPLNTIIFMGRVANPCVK

Heparin [GB1]: the Interaction with thrombin result at thrombin was “interaction”. Moreover, the Interaction with antithrombin entry on antithrombin was “interaction”.
Regarding N-desulfated Heparin [GB2], the Interaction with thrombin result at thrombin is on record as “lack of interaction”. Moreover, on antithrombin, the Interaction with antithrombin entry is reported as “lack of interaction”.
